Data from patent publication US7718808B2, “Thiazole derivatives” (Kyowa Hakko Kirin Co., Ltd., priority 2003, dated 2010).

melting point | Structure (SMILES)
195 to 205 °C | O=C(Nc1nc(-c2ccco2)c(C(=O)c2ccc(N3CCOCC3)nc2)s1)c1ccncc1 [Compound 324, N-[4-(2-Furyl)-5-(2-morpholinopyridin-5-ylcarbonyl)thiazol-2-yl]pyridine-4-carboxamide]
195 to 205 °C | CN1CCN(c2ccc(C(=O)c3sc(NC(=O)c4ccncc4)nc3-c3ccco3)cn2)CC1 [Compound 325, N-(4-(2-Furyl)-5-[2-(4-methylpiperazin-1-yl)pyridin-5-ylcarbonyl]thiazol-2-yl)pyridine-4-carboxamide]
264 to 268 °C | O=C(Nc1nc(-c2ccco2)c(C(=O)c2ccc(N3CCC(O)CC3)nc2)s1)c1ccncc1 [Compound 326, N-{4-(2-Furyl)-5-[2-(4-hydroxypiperidino)pyridin-5-ylcarbonyl]thiazol-2-yl}pyridine-4-carboxamide]
276 to 285 °C | O=C(Nc1nc(-c2ccco2)c(C(=O)c2ccncc2)s1)c1ccncc1 [Compound 329, N-[4-(2-Furyl)-5-(pyridin-4-ylcarbonyl)thiazol-2-yl]pyridine-4-carboxamide]
223 to 225 °C | Cc1cc(C(=O)c2sc(NC(=O)c3ccncc3)nc2-c2ccco2)ccn1 [Compound 332, N-[4-(2-Furyl)-5-(2-methylpyridin-4-ylcarbonyl)thiazol-2-yl]pyridine-4-carboxamide]
237 to 239 °C | COc1cc(C(=O)c2sc(NC(=O)c3ccncc3)nc2-c2ccco2)ccn1 [Compound 336, N-[4-(2-Furyl)-5-(2-methoxypyridin-4-ylcarbonyl)thiazol-2-yl]pyridine-4-carboxamide]
270 to 273 °C | O=C(Nc1nc(-c2ccco2)c(C(=O)c2ccnc(N3CCOCC3)c2)s1)c1ccncc1 [Compound 339, N-[4-(2-Furyl)-5-(2-morpholinopyridin-4-ylcarbonyl)thiazol-2-yl]pyridine-4-carboxamide]

More lines, now with the values behind:

Structure (SMILES) | melting point
O=C(Nc1nc(-c2ccco2)c(C(=O)c2cccnc2)s1)c1ccco1 [Compound 307, N-[4-(2-Furyl)-5-(pyridin-3-ylcarbonyl)thiazol-2-yl]furan-2-carboxamide] | 234 to 236 °C
Cc1ncccc1C(=O)c1sc(NC(=O)c2ccncc2)nc1-c1ccco1 [Compound 310, N-[4-(2-Furyl)-5-(2-methylpyridin-3-ylcarbonyl)thiazol-2-yl]pyridine-4-carboxamide] | 230 to 234 °C
Cc1ccc(C(=O)c2sc(NC(=O)c3ccncc3)nc2-c2ccco2)cn1 [Compound 313, N-[4-(2-Furyl)-5-(2-methylpyridin-5-ylcarbonyl)thiazol-2-yl]pyridine-4-carboxamide] | 230 to 232 °C (dec.)
Cc1ccc(C(=O)c2sc(NC(=O)c3ccc(C#N)cc3)nc2-c2ccco2)cn1 [Compound 314, 4-Cyano-N-[4-(2-furyl)-5-(2-methylpyridin-5-ylcarbonyl)thiazol-2-yl]benzamide] | 261 to 265 °C
Cc1ccc(C(=O)c2sc(NC(=O)c3ccco3)nc2-c2ccco2)cn1 [Compound 315, N-[4-(2-Furyl)-5-(2-methylpyridin-5-ylcarbonyl)thiazol-2-yl]furan-2-carboxamide] | 197 to 209 °C
Cc1ccc(C(=O)c2sc(NC(=O)c3ccoc3)nc2-c2ccco2)cn1 [Compound 316, N-[4-(2-Furyl)-5-(2-methylpyridin-5-ylcarbonyl)thiazol-2-yl]furan-3-carboxamide] | 229 to 231 °C
COc1ccc(C(=O)c2sc(NC(=O)c3ccncc3)nc2-c2ccco2)cn1 [Compound 319, N-[4-(2-Furyl)-5-(2-methoxypyridin-5-ylcarbonyl)thiazol-2-yl]pyridine-4-carboxamide] | 246 to 257 °C (dec.)
Cc1cc(C(=O)Nc2nc(-c3ccco3)c(C(=O)c3ccnc(C)c3)s2)ccn1 [Compound 333, N-[4-(2-Furyl)-5-(2-methylpyridin-4-ylcarbonyl)thiazol-2-yl]-2-methylpyridine-4-carboxamide] | 205 to 229 °C
